The values below come from ChEMBL document CHEMBL3988442, “University of Dundee, Small-Polar-MMV Screening Library” (2021).

Assay [1] can be described thus: microbe, parasite or virus in culture. The conditions noted are these: Mycobacterium tuberculosis, 96 h, read-out: pIC50 (converted).
Assay [2] in a line: microbe, parasite or virus in culture. The conditions noted are these: Mycobacterium tuberculosis, 72 h, read-out: pIC50 (converted).

Turning to `CCc1nc(C2CCCN2C(=O)CCCOc2cccc(F)c2)no1` (centres undefined), the IC50 in assay [1] and in assay [2] was over 50.1 µM each time.

With `COCCNC(=O)COc1ccc2c(c1)OCO2`, the IC50 in assay [1] is 62.9 µM; in assay [2] it was 128 µM.

In the case of `CCC1CN(S(C)(=O)=O)c2ccccc2O1` (centres undefined), the IC50 in assay [1] is over 501 µM; in assay [2], 164 µM.

With `CC(C)Oc1ccc(C(CN)N(C)C)cc1` (centres undefined), the results for the IC50 in assay [1] and in assay [2] were 225 µM and 133 µM, respectively.

For `Cc1[nH]c(=O)[nH]c(=O)c1CN1CCCC(CCc2ccccc2F)C1` (centres undefined), the IC50 in assay [1] and in assay [2] was over 50.1 µM each time.

As to `Cc1cccc(CN2C[C@@H](CN3CCCN(C)CC3)C[C@H](CO)C2)n1`, the IC50 in assay [1] and in assay [2] was over 50.1 µM each time.

In the case of `CCn1ccnc1CN1CCCC1Cn1cc(C)cn1` (centres undefined), the IC50 was over 50.1 µM in assay [1] and 46.3 µM in assay [2].

Take `O=C(Cn1ccc2ccccc21)N1CCCC1`: the IC50 is 162 µM in assay [1] and 60 µM in assay [2].

For `Cc1[nH]c(=O)[nH]c(=O)c1CN1CCCC(CCc2ccc(F)cc2F)C1` (centres undefined), the IC50 in assay [1] and in assay [2] was over 50.1 µM throughout.

On to `CCOc1ccc(Cl)cc1CNCCNCC(C)O` (centres undefined), for which the IC50 was 30.7 µM in assay [1] and 254 µM in assay [2].

Turning to `FC(F)(F)Sc1ccc(NCc2nnc(C3CC3)o2)cc1`, the IC50 in assay [1] is 14.3 µM; in assay [2] it was 36.4 µM.

For `OCCNCCNCc1cccc(Cl)c1Cl`, the IC50 was 33.1 µM in assay [1] and 199 µM in assay [2].

With `CN(C)C(=O)COC(=O)c1ccc2ccccc2n1`, the IC50 is over 501 µM in assay [1] and 142 µM in assay [2].

In the case of `NC(=O)C1CCN(C(=O)CCc2ccc(Cl)cc2Cl)C1` (centres undefined), the IC50 in assay [1] was 284 µM; in assay [2], 157 µM.

As to `CCc1ccccc1OC1CN(C(=O)c2ccnc(OC)c2)C1`, the IC50 is 43.4 µM in assay [1] and 21.3 µM in assay [2].

For `CC(C)(C)OC(=O)N1CCN(C2CCC(N)CC2)CC1` (centres undefined), the IC50 in assay [1] and in assay [2] was over 501 µM in each case.

In the case of `NC(=O)c1cnc(NC2CCc3ccccc32)c(Cl)c1` (centres undefined), the figures for the IC50 in assay [1] and in assay [2] were 196 µM and 199 µM, respectively.

Turning to `Cc1cc(N(C)Cc2ccsc2)n2nc(C)c(C)c2n1`, the IC50 in assay [1] and in assay [2] was 12.6 µM each time.

For the compound `Cc1ccsc1[C@@H]1CCN(C(=O)CCOc2ccccc2)C[C@H]1O`, the IC50 in assay [1] and in assay [2] was over 50.1 µM each time.

Consider `CCC(C)C(=O)NCCNc1ccc(C(F)(F)F)cn1` (centres undefined), for which the IC50 in assay [1] is 57.7 µM; in assay [2], 51.5 µM.

Consider `Cc1cc(C)c(CN2CCOC(CN)C2)cc1C` (centres undefined), for which the IC50 in assay [1] was 259 µM; in assay [2], 183 µM.

Turning to `NCc1ccncc1OCC(F)(F)F`, the IC50 in assay [1] and in assay [2] was over 501 µM in each case.

As to `NCC(CO)Cc1ccc(F)c(Br)c1` (centres undefined), the IC50 is 249 µM in assay [1] and 375 µM in assay [2].

For `COc1ccc(S(=O)(=O)Nc2cccc(CN)c2)cc1`, the values for the IC50 in assay [1] and in assay [2] were over 501 µM and 162 µM, respectively.

With `NCCc1nc(C2CC2)cs1`, the IC50 in assay [1] is 103 µM; in assay [2], 91.5 µM.

Consider `O=C(CCC(F)(F)F)N1CCCC(CO)(CC2CC2)C1` (centres undefined), for which the results for the IC50 in assay [1] and in assay [2] were 4.11 µM and 2.54 µM, respectively.

`COc1ccc(Br)c(S(=O)(=O)N(C)C)c1`: the figures for the IC50 in assay [1] and in assay [2] were over 501 µM and 358 µM, respectively.

Regarding `O=C(c1cc(C2CC2)on1)N1CCCN(C2CC2)CC1`, the IC50 in assay [1] and in assay [2] was over 501 µM in each case.

On to `NCC1CCCN1CCc1ccccc1` (centres undefined), for which the IC50 in assay [1] and in assay [2] was over 501 µM throughout.

On to `CC(C)c1cc(C(=O)N2CC[C@@H](N)C2)nn1C(C)(C)C`, for which the IC50 in assay [1] and in assay [2] was over 501 µM each time.

`CN(CC(=O)Nc1ccsc1)C(=O)c1ccco1`: the IC50 in assay [1] and in assay [2] was over 501 µM each time.

Turning to `O=S(=O)(NCc1nccs1)N1CCc2ccccc2C1`, the IC50 in assay [1] is 146 µM; in assay [2], 133 µM.

Regarding `CCC(N)C(=O)Nc1ccc2c(c1)C(=O)CCC2` (centres undefined), the IC50 in assay [1] is 137 µM; in assay [2], 163 µM.

For `CC(C)N(CCS(=O)(=O)c1ccccc1)CC(N)=O`, the IC50 in assay [1] is over 501 µM; in assay [2] it was 435 µM.

For `C[S+]([O-])c1nncn1CCCOc1cccc(Cl)c1` (centres undefined), the IC50 was over 501 µM in assay [1] and 341 µM in assay [2].

Turning to `O=C(NC1CC1)c1nc2c(s1)CCCN2c1ccccc1`, the IC50 in assay [1] was 14.2 µM; in assay [2], over 50.1 µM.

Consider `CS(=O)(=O)NC[C@H]1Cn2c(-c3ccc(Cl)cc3)cnc2CO1`, for which the IC50 in assay [1] and in assay [2] was over 50.1 µM each time.

Regarding `N#Cc1cccc(N2CCCC(CO)(Cc3ccccc3F)C2)n1` (centres undefined), the IC50 in assay [1] is over 50.1 µM; in assay [2], 12.6 µM.

As to `NCCCc1nc(-c2ccc(F)cc2)no1`, the results for the IC50 in assay [1] and in assay [2] were 186 µM and 163 µM, respectively.

Turning to `NC(=O)C1CCCN(CCc2ccccc2)C1` (centres undefined), the IC50 in assay [1] and in assay [2] was over 501 µM in each case.

On to `O=C(c1cnsn1)N1CCCSc2ccc(F)cc21`, for which the IC50 in assay [1] was 164 µM; in assay [2], 200 µM.

Regarding `CC(CNC(=O)c1ccon1)Oc1cccc(Br)c1` (centres undefined), the IC50 in assay [1] was 32.6 µM; in assay [2], 25.7 µM.

Regarding `Cc1cc(C(=O)N(C)C[C@H](O)CO)cc(Cl)c1Br`, the IC50 is 51.9 µM in assay [1] and 403 µM in assay [2].

On to `Cc1nn2c(NCC(=O)NC3CC3)cc(-c3ccccc3)nc2c1C`, for which the IC50 is 12.1 µM in assay [1] and 13.4 µM in assay [2].

On to `CCn1cncc1CNc1ccc(-c2nc(CC(C)C)no2)cn1`, for which the IC50 in assay [1] is 5.92 µM; in assay [2], over 50.1 µM.

With `O=C(NCc1ccco1)Nc1nc2c(s1)COCC2`, the IC50 in assay [1] and in assay [2] was over 501 µM in each case.

`O=C(COc1ccccc1Cl)NCC(=O)c1ccco1`: the IC50 in assay [1] was over 501 µM; in assay [2] it was 342 µM.

As for `CN(C)CCCN1CC2(CCN(C3CCCOC3)CC2)OC1=O` (centres undefined), the IC50 in assay [1] and in assay [2] was over 50.1 µM each time.

Turning to `Cc1noc(CNC(CCO)C(C)C)n1` (centres undefined), the IC50 in assay [1] and in assay [2] was over 501 µM in each case.

Turning to `c1snnc1CNCC1COC2(CCCCC2)O1` (centres undefined), the IC50 in assay [1] is 268 µM; in assay [2] it was over 501 µM.

With `CCC(CO)Nc1nccc(C(F)(F)F)n1` (centres undefined), the IC50 in assay [1] and in assay [2] was over 501 µM in each case.

For the compound `CN1CCN(c2ccnc(SCC(N)=O)n2)CC1`, the IC50 in assay [1] was over 501 µM; in assay [2] it was 289 µM.

In the case of `COc1cccc(CN(C)C(=O)CSc2ccc3c(c2)OCCO3)c1`, the IC50 is 25 µM in assay [1] and over 50.1 µM in assay [2].

For `CC(C)n1nnc(CC(=O)NCC2(c3cccc(F)c3)CCCC2)n1`, the IC50 in assay [1] and in assay [2] was over 50.1 µM each time.

`CCCC(C)N(C)Cc1nnc(-c2ccc(Br)s2)o1` (centres undefined): the values for the IC50 in assay [1] and in assay [2] were 29.4 µM and 1.85 µM, respectively.

Take `CC1CCCN(c2cc(CNS(C)(=O)=O)ccn2)C1` (centres undefined): the IC50 is 277 µM in assay [1] and 449 µM in assay [2].

Regarding `O=C1NC(=O)c2c(O)cccc21`, the results for the IC50 in assay [1] and in assay [2] were 254 µM and 196 µM, respectively.

With `COCCN1C[C@@H]2CN(c3cc(OC)ncn3)CCC[C@]2(C(=O)O)C1`, the IC50 in assay [1] and in assay [2] was over 50.1 µM in each case.

On to `Cc1csc(NC(=O)CNC(=O)c2cccs2)n1`, for which the IC50 in assay [1] is over 501 µM; in assay [2], 185 µM.

Take `CCC[C@H]1CN(S(=O)(=O)Cc2ccc(F)cc2)C[C@@H]1N`: the IC50 in assay [1] and in assay [2] was over 501 µM each time.

For `CN(C)c1cc(CNC(=O)c2ccc(Br)o2)ccn1`, the IC50 in assay [1] and in assay [2] was over 501 µM in each case.

As to `CC(C)c1noc(CN2CCN(C(=O)c3ccc(F)cc3)CC2)n1`, the IC50 in assay [1] and in assay [2] was over 50.1 µM each time.

For `COc1ccc(CNCCc2ccn(-c3ccccc3)n2)cc1O`, the IC50 in assay [1] and in assay [2] was over 50.1 µM each time.

`COc1cccc(CNCCNc2cccc(C)n2)c1`: the IC50 was over 501 µM in assay [1] and 248 µM in assay [2].

For `COCCCOc1ccc2c(c1)OCCO2`, the IC50 in assay [1] is 109 µM; in assay [2], 92.8 µM.

Take `COCC(=O)N1CCC2(CC1)OCCO2`: the IC50 in assay [1] and in assay [2] was over 501 µM throughout.

With `Cc1c(C(=O)NC[C@H]2CCCN2)n(C)c2ccccc12`, the IC50 in assay [1] and in assay [2] was over 501 µM throughout.

With `COc1ccc(OC)c(NC(=O)c2ccccn2)c1`, the IC50 in assay [1] is 156 µM; in assay [2], 173 µM.

For the compound `CCc1nc(CN(C)Cc2ncc(-c3cccs3)o2)cs1`, the IC50 in assay [1] is 31.4 µM; in assay [2] it was 31.1 µM.

Regarding `CCCNC(=O)c1ccc(C(=O)OC)cc1`, the IC50 was over 501 µM in assay [1] and 120 µM in assay [2].

`CCC(=O)c1ccc(CN)cc1`: the IC50 is 264 µM in assay [1] and over 501 µM in assay [2].

In the case of `COc1cc(Cl)ccc1CN`, the results for the IC50 in assay [1] and in assay [2] were 279 µM and over 501 µM, respectively.

In the case of `CC(=O)NCc1ccc(C(=O)NC2CCc3nc(C)cn3C2)o1` (centres undefined), the IC50 in assay [1] and in assay [2] was over 50.1 µM in each case.

As to `Cc1nnc(SCCCNC(=O)c2cc(Cl)c[nH]2)s1`, the IC50 in assay [1] was 119 µM; in assay [2], 121 µM.

For `CN(Cc1cccc(OC(F)(F)F)c1)C(=O)c1cnsn1`, the IC50 in assay [1] is 33.3 µM; in assay [2], 24.3 µM.

As for `CC(N)c1nc(-c2ccc3c(c2)OCO3)c[nH]1` (centres undefined), the IC50 in assay [1] and in assay [2] was over 501 µM throughout.

For `COc1ccccc1CN1CCC(N)CC1`, the IC50 in assay [1] was over 501 µM; in assay [2], 130 µM.

For `NCCCN1CCN(c2ccccc2F)CC1`, the IC50 in assay [1] and in assay [2] was over 501 µM throughout.

Turning to `CN(C)c1ccc(C(=O)N2CCCC2c2ccc(Cl)cc2)nn1` (centres undefined), the IC50 in assay [1] and in assay [2] was over 50.1 µM throughout.

As for `CCCS(=O)(=O)NCC(O)Cc1ccccc1` (centres undefined), the IC50 in assay [1] is 197 µM; in assay [2] it was 136 µM.

Turning to `COc1cc(C(=O)N(Cc2cccs2)C2CC2)cc2c1OCCO2`, the IC50 in assay [1] and in assay [2] was over 50.1 µM throughout.

In the case of `COCCCNC(=O)C1=Cc2ccccc2OC1`, the results for the IC50 in assay [1] and in assay [2] were 115 µM and 119 µM, respectively.
